Laboratory results as given in patent US20130011392A1, “METHOD FOR ASSESSING THE ABILITY OF A PATIENT TO RESPOND TO OR BE SAFELY TREATED BY A NUCLEOSIDE ANALOG BASED-CHEMOTHERAPY” (Assistance Publique Hopitaux De Marseille, priority 2009, published 2013).
Where two headings read alike, the source gives them in different places.

How the values were obtained:
[1] = system: pancreatic cancers and other digestive localizations; assay: Treatment efficacy in digestive cancer patients by CT imaging / CA19-9 at 3 months; assay type: in vivo, human; details: gemcitabine alone or combined
Experimental: A total of 40 adult patients (21 men/19 women; 61±11 years old) with mostly pancreatic cancers (n=36 patients) and other digestive localizations (n=4 patients) were included in this retrospective study. All patients had been treated with gemcitabine alone (n=23 patients), associated with oxaliplatin (n=7 patients), erlotinib (n=2 patients), capecitabine (n=1 patient) or other drugs, including molecules used in target therapies (n=7 patients). Mean gemcitabine dose was 980 mg/m^2 (minimum: 500 mg/m^2, maximum: 1250 mg/m^2). CDA activity was measured spectrophotometrically from serum samples. Search for three genetic mutations (79A>C, 435T>C and 208G>A) was additionally performed. The cut-off associated with CDA extensiveness (extensive CDA activity) was set at 6 U/mg (e.g., >25% of the mean value of the population). Treatment efficacy was evaluated 3 month after beginning of the chemotherapy by CT imaging, with or without additional monitoring of the CA19-9 tumor marker.

[2] = system: leucocytes; assay: Animal haematological toxicity monitoring (leucocytes count); assay type: in vivo, swiss mice; details: for Mean leucocytes count: day 5 after gemcitabine 100 mg/kg
Experimental: (§1) Parent-drug and difluorodeoxyuridine (dFdU) metabolite concentrations in plasma were assayed by UV-HPLC, as described in the literature (10). Elimination rate of gemcitabine was evaluated through a compartmental analysis and a stochastic model, using a home-built algorithm (11). Mean metabolization ratio for gemcitabine was calculated as follows: dFdU (μg/ml)/gemcitabine (μg/ml)×100. Carcass weights were monitored. Drug-induced leucopenia was the marker for gemcitabine-related toxicity. Leucocytes count was performed on day-0, then day-2, day-5 and day-8 post injection using Flow Cytometry analysis.

[3] = system: patients; details: cited from earlier work
[4] = Animal pharmacokinetics of gemcitabine; assay type: in vivo, swiss mice; details: for clearance: male, Swiss, mouse, plasma, intraperitoneal; for Gemcitabine exposure AUC0-60: gemcitabine 100 mg/kg intraperitoneally; for Increase in gemcitabine exposure in animals with inhibited CDA: inhibited CDA (THU) vs normal CDA
Experimental: as §1

[5] = system: paediatric cancer patients; assay: Treatment-related toxicities in children; assay type: in vivo, human
Description: Subset 3: 20 patients (12 men/8 women; mean and SD age, 12±7 years) from the Pediatric Oncology Unit of La Timone University Hospital that had been previously treated with gemcitabine-based protocols had their CDA status phenotyped as well (Table 2). Most of these young patients were heavily pre-treated, and gemcitabine was mostly given as part of a Gemox protocol (n=14 patients), or associated with paclitaxel (n=3 patients) or with various other anticancer drugs (e.g.
carboplatine, liposomal doxorubicin) or dexamethasone. In children, mean gemcitabine dose was 1028±190 mg/m^2 (minimum, 600 mg/m^2 —maximum, 1400 mg/m^2). Tumour types were extremely heterogeneous and included osteosarcoma, medulloblastoma, Ewing's sarcoma, and Hodgkin's syndrome.
Toxicities were graded following the standard National Cancer Institute-Common Toxicity Criteria guidelines. Toxicities of grade ≧3 were regarded as “severe”. A toxic event was considered “early” when occurring […] the 1st or the 2nd day of the gemcitabine course, and was considered “late” when occurring after those days.

[6] = system: adult cancer patients; assay: Treatment-related toxicities in adult cancer patients (NCI-CTC); assay type: in vivo, human
Description: A total of 150 cancer patients (130 adults—Table 1 and 20 children—Table 2) hospitalized at La Timone University Hospital of Marseille, France, from January 2007 to December 2008, were enrolled in this retrospective, observational study. Written informed consent and local ethic committee approval were obtained prior to performing CDA testing. Patients were divided into 3 subsets: […] These patients were mostly treated for pancreatic (n=40 patients) or gynaecological (n=7 patients) cancers. Other tumour types included liver, lung, vesical, or other localizations. In patients with digestive cancers, gemcitabine was administered as a fixed-dose rate infusion, whereas other patients received a standard rapid infusion. […] Remaining patients were given various drug combinations including capecitabine, fluorouracil (5-FU), herceptin, navelbine, sorafenib, axatinib, and erlotinib. Gemcitabine was given either as a rapid infusion or at fixed-dose rate infusion, depending on tumor location, as described previously. Twenty patients were treated for vesical-urothelial cancers. Other tumour types were pancreatic (n=12 patients), breast (n=12 patients), gynaecological (n=12 patients), and other, including lung, head and neck, liver, and other localisations. Toxicities were graded following the standard National Cancer Institute-Common Toxicity Criteria guidelines. Toxicities of grade ≧3 were regarded as “severe”.

[7] = extensive subset (CDA>6 U/mg, n=8)

## Nc1ccn([C@@H]2O[C@H](CO)[C@@H](O)C2(F)F)c(=O)n1 [gemcitabine, 2′-deoxy-2′,2′-difluorocytidine]
[1]; [7]
  Non-responders with progressive disease: 75%
  Patients with controlled disease: 25%
[1]; non-extensive subset (CDA<6 U/mg, n=32)
  Patients with controlled disease: 84.5%
[2]; CDA-deficient mice (THU)
  Outcome by day 8: all animals were dead
  Mean leucocytes count: 1.5 G/L
[2]; day 5, CDA-deficient mice (THU)
  Decrease of leucocytes count: 65%
[2]; day 5, mice with normal CDA activity
  Decrease of leucocytes count as compared with untreated animals: 23%
[2]; mice with normal CDA activity
  Mean leucocytes count: 3.2 G/L
  Outcome by day 8: all animals spontaneously recovered from their toxicities
[3]; gemcitabine given as a combination (polychemotherapy)
  Severe toxicities reported: 15-30%
[3]; gemcitabine monochemotherapy
  Severe toxicities reported: 5-10%
[4]
  clearance: 3.25 mL/min/kg
[4]; 100 mg/kg, mice, normal CDA
  clearance: 12.6 mL/min/kg
[4]; mice with altered CDA function (THU) vs normal
  Decrease of gemcitabine clearance: 74%
[4]; mice, inhibited CDA (THU pre-treatment)
  Gemcitabine exposure AUC0-60: 142 µg/mL/min
[4]; mice, normal CDA
  Gemcitabine exposure AUC0-60: 54 µg/mL/min
[4]; mice
  Increase in gemcitabine exposure in animals with inhibited CDA: ~3 fold
[4]; mice, listed as Gemcitabine
  Increase in gemcitabine exposure in animals with inhibited CDA: 2.6 fold
[5]; Subset 3, 20 children
  Late/cumulative grade-3 anemia: 20%
  Late/cumulative grade-3 neutropenia: 20%
  Late/cumulative grade-3 thrombopenia: 10%
[5]; Subset 3, 20 children, gemcitabine-based protocols
  Early severe toxicities: No early severe toxicities were observed
[5]; children
  Tolerance: well tolerated
[6]; 66 extra-patients, gemcitabine in combination with another anticancer drug
  Patients with severe side-effects: 14%
[6]; 130 adult patients, gemcitabine-containing protocol, after first or second administration
  Patients with early severe toxicities: 12%
[6]; Subset 1, gemcitabine alone, n=64
  Patients with early severe toxicities: 11%
[6]; Subset 1, monotherapy, n=64
  Anemia grade 3/4, Early: 1 (1.6%) n (%)
  Anemia grade 3/4, Late: 1 (1.6%) n (%)
  Asthenia grade 3/4, Early: 1 (1.6%) n (%)
  Asthenia grade 3/4, Late: 1 (1.6%) n (%)
  Diarrhea grade 3/4, Early: 0 (0%) n (%)
  Diarrhea grade 3/4, Late: 1 (1.6%) n (%)
  Leucopenia grade 3/4, Early: 7 (11%) n (%)
  Leucopenia grade 3/4, Late: 10 (16%) n (%)
  Neutropenia grade 3/4, Early: 6 (9.6%) n (%)
  Neutropenia grade 3/4, Late: 8 (12.8%) n (%)
  Sepsis grade 3/4, Early: 3 (4.8%) n (%)
  Sepsis grade 3/4, Late: 0 (0%) n (%)
  Thrombopenia grade 3/4, Early: 2 (3.2%) n (%)
  Thrombopenia grade 3/4, Late: 2 (3.2%) n (%)
